Reference: patent US20160376659A1, “Breast Cancer Biomarker” (The University of Manchester, priority 2015, published 2016)

Legend:
NOTCH4-ICD and JAG1 [1] = test: NOTCH4-ICD and JAG1 Western Blot in PDX treated in vivo; design: species or system mice; conditions: 14 day window treatment of PDXs in vivo
Description: (§1) Tamoxifen citrate (Sigma, T9262, 10 mg/kg/day) and RO4929097 (Cellagen Technology, 3 mg/kg/day) were administered by oral gavage (0.1 ml/dose) on a five day from seven basis (weekends excluded) for fourteen days. Tamoxifen citrate and RO4929097 were prepared in 1% carboxymethylcellulose (Sigma, C9481) dissolved in distilled water. Fulvestrant (kindly provided by Astrazeneca, 200 mg/kg/week) was administered by subcutaneous injection (0.1 ml/dose) on a weekly basis for fourteen days. The HBC×22 and HBC×34 tamoxifen-resistant PDXs have been established by our collaborators in the Curie Institute (Cottu el al, 2014) and were treated for fourteen days in the presence or absence of the gamma-secretase inhibitor RO4929097 (10 mg/kg/day, oral gavage). Xenografts were collected in ice cold DMEM media for live cell assays, histological analysis and RNA and protein extraction. Patient-derived xenograft single cell suspension was obtained using a collagenase-hyaluronidase mixture for digestion (Stem Cell Technologies).
Proteins were extracted with Protein Lysis Buffer (25 mM HEPES, 50 mM NaCl, 30 mM NaPP, 50 mM NaF, 1% Triton-X-100, 10% Glycerol, 5 mM EDTA, Protease Inhibitor cocktail, 1 μM PMSF). […] Protein concentrations were assessed using the BCA Protein Assay Kit (Thermo Scientific, 23225). […]

[2] = test system: Notch target genes HEY1 and HES1; test: HEY1 and HES1 expression by real-time PCR in PDX tumors treated in vivo; design: species or system mice; conditions: PDX tumors treated in vivo 2 weeks
Description: as §1, with “Xenografts were collected in ice cold DMEM media for live cell assays, histological analysis and RNA and protein extraction. Patient-derived xenograft single cell suspension was obtained using a collagenase-hyaluronidase mixture for digestion (Stem Cell Technologies).” left out
Total RNA was extracted using the RNeasy Plus Mini Kit (QIAGEN, 74104) and the concentration and purity determined using an ND-1000 spectrophotometer (NanoDrop Technologies). […] Quantitative real-time PCR reactions were set up in triplicate in 384-well plates and performed on the 7900 PCR machine (Applied Biosystems) using TaqMan® Universal PCR Master Mix (Applied Biosystems) and probes from Universal Probe Library (Roche). […] The expression levels were calculated using the ΔΔCt method and normalised to the housekeeping genes 36B4 and GAPDH. […]

[3] = test system: ER+ metastatic BC patient-derived samples; test: ALDEFLUOR assay (ALDH enzymatic activity) in metastatic patient-derived cells; format: cell-based, human; conditions: Tamoxifen 10^−6 M or Fulvestrant 10^−7 M, 7-9 days; seven out of nine patient samples
Description: Metastatic samples (ascites or pleural effusions) were centrifuged at 1000 g for 10 minutes at 4° C. The cell pellets were diluted in PBS. Erythrocytes and leucocytes were removed using Lymphoprep (Axis-Shield) and CD45-negative magnetic sorting (Miltenyi Biotec), respectively. Cells were cultured in adherence for 7-9 days in DMEM/F-12 medium, GlutaMAX (Gibco) with 10% FBS (Gibco), 10 μg/ml insulin (Sigma), 10 μg/ml hydrocortisone (Sigma) and 5 ng/ml epidermal growth factor (EGF, Sigma), in 10^−6M 4-OH-tamoxifen (Sigma, H7904), 10^−7M fulvestrant (ICI 182780, TOCRIS, 1047) or ethanol (control).
Dissociated single cells were suspended in Aldefluor assay buffer containing an ALDH substrate, bodipyaminoacetaldehyde (BAAA) at […], and incubated for 45 min at 37° C. To distinguish between ALDH-positive and -negative cells, a fraction of cells was incubated under identical conditions in the presence of a 2-fold molar excess of the ALDH inhibitor, diethylaminobenzaldehyde (DEAB). Mouse cells were excluded from the FACS analysis with anti-mouse MHC Class I (H-2Kd) antibody conjugated with Pacific Blue (BioLegend, 116616). 7-aminoactinomycin D (7AAD, BD) was added for dead cell exclusion. Data were acquired on a LSR II (BD) flow cytometer and analysed using the BD FACSDiva™ software.

NOTCH4-ICD and JAG1 [4] = test: NOTCH4-ICD and JAG1 Western Blot in MCF-7 cells; format: cell-based, human; conditions: short term treatment of MCF-7 cells in vitro
Description: MCF7, T47D and ZR-75-1 cell lines were purchased from American Tissue Culture Collection (ATCC) and cultured in DMEM/F-12, GlutaMAX (Gibco) with 10% FBS (Gibco). Cells were treated for 3 days or 6 days with ethanol (control), 10^-6M 4-OH-tamoxifen or 10^−7M fulvestrant and/or with 10 μM of gamma-secretase inhibitor RO4929097 (Cellagen Technology) or DMSO (control).
Proteins were extracted with Protein Lysis Buffer (25 mM HEPES, 50 mM NaCl, 30 mM NaPP, 50 mM NaF, 1% Triton-X-100, 10% Glycerol, 5 mM EDTA, Protease Inhibitor cocktail, 1 μM PMSF). Lysates were placed on a rotator for 1 hour at 4° C., then were centrifuged at 10000 g at 4° C. for 10 min, and supernatants were collected. Protein concentrations were assessed using the BCA Protein Assay Kit (Thermo Scientific, 23225). Proteins were separated on a 10% gel (Biorad, 456-1033) by SDS-PAGE at 200V for 1 hour, and then were transferred on polyvinylidene difluoride (PVDF) membranes (BioRad, 170-4157) at 25 V/1,300 mA for 15 min using a Trans Blot Turbo (BioRad, 170-4155). Membranes were blocked in a solution of PBS containing 0.05% Tween-20 and 5% skimmed milk (Marvel) for 1 h at room temperature and primary antibodies were incubated overnight at 4° C. […]

CD44^+CD24^low+ BCSCs = conditions: Azzam et al., 2013; cited from earlier work

Row | SMILES | NOTCH4-ICD and JAG1 protein expression (NOTCH4-ICD and JAG1 [1]) | HEY1 and HES1 expression [2] | ALDH enzymatic activity [3] | NOTCH4-ICD and JAG1 protein expression (NOTCH4-ICD and JAG1 [4]) | mammosphere and tumor formation (CD44^+CD24^low+ BCSCs)
1 | C[C@]12CC[C@@H]3c4ccc(O)cc4C[C@@H](CCCCCCCCC[S+]([O-])CCCC(F)(F)C(F)(F)F)[C@H]3[C@@H]1CC[C@@H]2O (stereo partly drawn) [fulvestrant] | up-regulated | increased | significant increase | up-regulated | –
2 | CC(C)(C(=O)NCC(F)(F)C(F)(F)F)C(=O)N[C@@H]1C(=O)Nc2ccccc2-c2ccccc21 [RO4929097] | – | – | – | – | reduce
3 | CC/C(=C(\c1ccccc1)c1ccc(OCCN(C)C)cc1)c1ccccc1 [tamoxifen, (Z)-2-[4-(1,2-diphenylbut-1-enyl)phenoxy]-N,N-dimethylethanamine] | up-regulated | increased | significant increase | up-regulated | –
